Assays:
[1] = target: T1, Oct1 (Solute carrier family 22 member 1) (Mus musculus, UniProt O08966); assay: TP_TRANSPORTER: inhibition of TEA uptake (TEA: 50 uM, NMN: 10000 uM) in Oct1-expressing BALB/3T3 cells; assay type: functional, cell-based; parameters: scale not given: the % may be the effect or the level left; conditions: BALB/3T3 cells expressing Oct1, probe TEA (50 uM), read-out: Activity
T1 sequence (O08966 whole entry): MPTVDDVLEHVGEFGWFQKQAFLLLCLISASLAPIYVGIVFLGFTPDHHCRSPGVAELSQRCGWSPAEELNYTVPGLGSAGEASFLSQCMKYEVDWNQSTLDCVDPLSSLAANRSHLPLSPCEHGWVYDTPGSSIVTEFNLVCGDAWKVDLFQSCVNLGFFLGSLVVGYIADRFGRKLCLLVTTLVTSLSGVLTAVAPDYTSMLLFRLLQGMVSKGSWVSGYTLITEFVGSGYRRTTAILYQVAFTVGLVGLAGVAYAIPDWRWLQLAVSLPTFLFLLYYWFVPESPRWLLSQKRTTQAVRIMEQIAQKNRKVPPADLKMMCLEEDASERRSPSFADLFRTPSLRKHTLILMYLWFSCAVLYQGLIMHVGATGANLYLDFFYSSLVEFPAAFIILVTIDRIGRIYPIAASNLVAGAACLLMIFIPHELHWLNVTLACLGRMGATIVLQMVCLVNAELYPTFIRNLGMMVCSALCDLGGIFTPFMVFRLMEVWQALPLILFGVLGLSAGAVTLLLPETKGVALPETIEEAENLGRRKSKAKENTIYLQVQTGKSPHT

[2] = target: T1, Oct1 (Solute carrier family 22 member 1); assay: TP_TRANSPORTER: inhibition of TEA uptake (TEA: 50 uM, Quinidine: 1000 uM) in Oct1-expressing BALB/3T3 cells; assay type: functional, cell-based; parameters: scale not given: the % may be the effect or the level left; conditions: BALB/3T3 cells expressing Oct1, probe TEA (50 uM), read-out: Activity
[3] = target: T2, Solute carrier family 22 member 1 (Mus musculus, UniProt O08966); assay: TP_TRANSPORTER: inhibition of TEA uptake (TEA: 50 uM, TMA: 10000 uM) in Oct1-expressing BALB/3T3 cells; assay type: functional, cell-based; parameters: scale not given: the % may be the effect or the level left
T2 sequence (O08966 whole entry): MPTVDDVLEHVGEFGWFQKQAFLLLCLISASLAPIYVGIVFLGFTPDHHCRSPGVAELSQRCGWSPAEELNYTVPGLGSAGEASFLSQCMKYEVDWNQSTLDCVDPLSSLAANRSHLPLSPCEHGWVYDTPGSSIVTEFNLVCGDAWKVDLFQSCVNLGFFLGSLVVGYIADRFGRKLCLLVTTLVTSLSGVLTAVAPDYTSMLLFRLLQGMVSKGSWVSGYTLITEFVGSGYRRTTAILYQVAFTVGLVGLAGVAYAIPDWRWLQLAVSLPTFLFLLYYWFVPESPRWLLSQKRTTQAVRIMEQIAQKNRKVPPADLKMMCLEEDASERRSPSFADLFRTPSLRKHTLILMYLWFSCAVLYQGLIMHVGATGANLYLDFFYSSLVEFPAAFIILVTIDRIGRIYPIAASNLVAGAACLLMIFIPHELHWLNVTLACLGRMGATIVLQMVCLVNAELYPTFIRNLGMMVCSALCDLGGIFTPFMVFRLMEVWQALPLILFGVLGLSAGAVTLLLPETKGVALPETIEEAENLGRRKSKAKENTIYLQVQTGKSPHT

[4] = target: T1, Oct1 (Solute carrier family 22 member 1); assay: in vitro; conditions: BALB/3T3 cells expressing Oct1, probe TEA (50 uM)
Description: TP_TRANSPORTER: inhibition of TEA uptake (TEA: 50 uM, Thiamine: 10000 uM) in Oct1-expressing BALB/3T3 cells

[5] = substrate: C[N+](C)(C)CCO; assay: cells, lysate or membranes named
[6] = substrate: CCCC[N+](CCCC)(CCCC)CCCC; assay: cells, lysate or membranes named

For `CNC(=O)c1cccnc1` [NICOTINYL METHYLAMIDE], the activity at 10000 uM [1] was 0%.

Work on `C=C[C@H]1C[N@@]2CC[C@H]1C[C@@H]2[C@@H](O)c1ccnc2ccc(OC)cc12` [QUINIDINE] yielded an activity at 1000 µM [2] of 0%.

Molecule `C[N+](C)(C)C.[Cl-]` [TETRAMETHYLAMMONIUM] has an Activity [3] of 0%.

In the case of `Cc1ncc(C[n+]2csc(CCO)c2C)c(N)n1` [THIAMINE ION], the activity at 10000 uM [4] is reported as 0%.

B1: Solute carrier family 22 member 1 (Mus musculus) (protein)
chain: MPTVDDVLEHVGEFGWFQKQAFLLLCLISASLAPIYVGIVFLGFTPDHHCRSPGVAELSQRCGWSPAEELNYTVPGLGSAGEASFLSQCMKYEVDWNQSTLDCVDPLSSLAANRSHLPLSPCEHGWVYDTPGSSIVTEFNLVCGDAWKVDLFQSCVNLGFFLGSLVVGYIADRFGRKLCLLVTTLVTSLSGVLTAVAPDYTSMLLFRLLQGMVSKGSWVSGYTLITEFVGSGYRRTTAILYQVAFTVGLVGLAGVAYAIPDWRWLQLAVSLPTFLFLLYYWFVPESPRWLLSQKRTTQAVRIMEQIAQKNRKVPPADLKMMCLEEDASERRSPSFADLFRTPSLRKHTLILMYLWFSCAVLYQGLIMHVGATGANLYLDFFYSSLVEFPAAFIILVTIDRIGRIYPIAASNLVAGAACLLMIFIPHELHWLNVTLACLGRMGATIVLQMVCLVNAELYPTFIRNLGMMVCSALCDLGGIFTPFMVFRLMEVWQALPLILFGVLGLSAGAVTLLLPETKGVALPETIEEAENLGRRKSKAKENTIYLQVQTGKSPHT
With B1 the Km [5] was 42 µM and the Km [6] was 43 µM.
